Test [1] has as its system Human primary foreskin keratinocytes. The experiment in a line: UVB irradiation of keratinocytes measuring DNA damage (nuclear thymine dimer staining). The format is cell-based. More on the design: Inhibition of photoproduct generation (protective effect): concentration or dose not given beside the values. The note with it: for Positive cells after UVB radiation (anti-thymine dimer antibody positive cells) / Inhibition of photoproduct generation (protective effect): 200 mJ/cm2 UVB; for Positive cells after UVB radiation (anti-thymine dimer antibody positive cells): positive cells above threshold in three fields, irradiated control 53%; for Inhibition of photoproduct generation (protective effect): relative to irradiated control; for UVB Irradiated Keratinocytes score: normalized to best performer = 20 points. An excerpt: Test 5: UVB Irradiation of Keratinocytes Measuring DNA Damage
This test assessed DNA damage in cell culture experiments under pro-oxidative conditions (UVB irradiation of human keratinocytes) by measuring the positive cells for anti-thymine dimer antibodies. This experiment is thought to reflect a direct correlation to the in vivo occurring DNA cross linking damage following UVB exposure and the protection of such nuclear damage by antioxidants.
Human primary foreskin keratinocytes (second passage) were grown in 6-well plates containing cover slips to 60% confluence in serum free medium (KGM, Clonetics) containing 0.07 mM CaCl2. Six hours before UVB-radiation medium was removed and replaced by fresh growth medium with or without the antioxidative substances.
Keratinocyte cultures were irradiated with a single dose of 200 mJ/cm2 UVB, using FS-20/T-12 bulbs (emission range: 280-340 nm; 305 nm max.). Immediately prior to irradiation, the medium was replaced with 1 ml sterile PBS (pH 7.4, 37° C.), and after irradiation, PBS was replaced with fresh growth medium. UVB exposure was quantitated using a Goldilux Ultraviolet radiometer. Cells were maintained at 37° C. (5% CO2) for 1 hour until fixation with paraformaldehyde (PFA).
Cells were fixed with 4% PFA in PBS for 30 min at RT, washed with PBS and permeabilized by incubation with EtOH/PBS (90/10; v %/v %) for 30 min at ˜10° C. After fixation and permeabilization cells were washed twice with PBS containing 1% of bovine serum albumin (BSA). They were then incubated for 30 min with 10 μg/ml anti-thymine Dimer Ab (clone KTM53; Kamiya) at RT. After the incubation period cells were washed twice with PBS-BSA and incubated for 30 min with 20 μg/ml secondary FITC-conjugated anti-mouse IgG at RT. After the incubation with the secondary antibody, cells were washed twice with PBS-BSA and fixed again with 4% PFA for 15 min at RT. Slides were analyzed by confocal microscopy.
This experiment is thought to reflect the in-vivo occurring DNA damage following UVB exposure and the protection of such nuclear damage by antioxidants.

The nature of test [2]: LDL pro-oxidative system (CuSO4) measuring primary oxidation by-products (lipid hydroperoxides). The class given is biochemical. The note with it: 100 μmol antioxidant; normalized to best performer = 20 points. An excerpt:
Test 3: LDL Pro-Oxidative Systems Measuring Primary & By-Products
This test assessed the ability of the antioxidant to protect LDL stressed with Copper Sulfate (Cu—SO4) oxidative system. The CuSO4-LDL system was used to evaluate the protection of lipid bulks over time measuring the primary by-products of lipid peroxidation—the highly reactive and cytotoxic lipid hydroperoxides.
After isolation, LDLs were extensively dialyzed against a degassed and nitrogen-saturated Tris-Hydrochloric (HCl) buffer (5 mmol/L, pH7.4) containing 1 mmol/L EDTA. Before oxidation by CuSO4, EDTA was removed from LDL by dialysis against a Tris-HCl buffer (5 mmol/L, pH7.4) without added EDTA.
Lipid hydroperoxides were determined with the Cayman Lipid Peroxidation (LPO) Assay Kit (Cayman Chemical, Ann Arbor, Mich.) which measures the hydroperoxides directly utilizing the redox reactions with ferrous ions to produce ferric ions which can be detected using thiocyanate ion as the chromogen.

The subject of the next test is human skin. The experiment in a line: UVB irradiation of human skin measuring damage by formation of sunburn cells (sunburn cell assay). The class given is in vivo. The note with it: for reduction in SBCs: 0.5% w/w in ethanol/water, topical once a day for two weeks, 1.5 MED UVB; for Sun Burn Cell Assay score: normalized to best performer = 20 points. An excerpt:
Test 1: UVB Irradiation of Human Skin Measuring Damage by Formation of Sunburn Cells (SBC)
Exposure to UV radiation can cause damage of epidermal cells, resulting in the formation of sunburn cells. Since sunburn cells can be counted, their formation provides a relatively sensitive and quantitative measure of the extent of UV radiation damage to the epidermis.
All applications were made to a 5×10 cm area site over the mid-back region once a day for two weeks. Each putative antioxidant was applied to five (n=5) different healthy adult volunteers between the ages of 18 and 60. All Antioxidants were dissolved in ethanol/water at 0.5% w/w concentrations. Additionally, one test site was left untreated and served as a control. Approximately ten minutes after the last application, test sites were irradiated to 1.5 MED (Minimal Erythema Dose) of UVB light, a shave biopsy taken and prepared histologically, and the number of sun burn cells (SBC) evaluated microscopically per High Power Field.
The light source used was a 150 watt xenon arc solar simulator equipped with a UV reflecting dichromic mirror and a 1 mm thick Schott WG-320 (BES Optics Inc., W. Warwick, R.I.) filter to produce simulation of the solar spectrum. A 1 mm thick UG5 filter was added to remove reflected heat and remaining visible radiation.
The MED for each subject was determined by exposing a 1 cm diameter circle to untreated areas to a series of exposures in 25% dose increments from the solar simulator. The MED was defined as the time of exposure required to produce a minimally perceptible erythema 20±4 hours after exposure. Biopsies: Approximately ten minutes after the last topical application of the putative antioxidant, a circular area measuring 1 cm in diameter was exposed to a single dose of 1.5 MED using the solar simulator. Approximately 20 hours later, a shave biopsy (˜4×4 mm) was obtained from each irradiated and untreated control sites. Following injections of a local anesthetic (lidocaine). The skin specimens were immediately fixed in 10% buffered formalin.
The fixed specimens were processed routinely, embedded in paraffin and then sectioned and stained with hematoxylin-eosin. The numbers of sun burn cells (SBC) were determined in at least 12 sections at 50 u intervals. A minimum of 70 high power fields (HPF) was counted from each biopsy and the average number of SBCs per HPF determined. All specimens were counted in a blinded manner.
FIG. 3 expresses the photoprotective benefits of the antioxidants tested based on the percent change over baseline (delta percent) for the number of SBC per HPF.

The nature of test [3]: Microsome pro-oxidative system (NADPH/ADP/Fe3+) measuring secondary oxidation by-products (MDA equivalents, TBARS). The class given is biochemical, male Wistar rats. As to conditions: 100 μmol antioxidant; normalized to best performer = 20 points.
Protocol: Test 4: Microsome Pro-Oxidative System measuring Secondary Oxidation By-Products
In this test, an assessment of antioxidative ability to protect microsomal membrane stressed with NADPH/ADP/Fe^3+-oxidative system measuring secondary oxidative by-products (Malondialdehyde-MDA equivalents) was performed utilizing the Thiobarbituric Acid Reactive Substances (TBARS) method. […] Therefore the pro-oxidative NADPH/ADP/Fe^3+-microsome system was used as an in vitro model system more closely resembling natural cellular biological systems.
Livers were obtained from male Wistar rats weighing between 250 and 400 g. Tissue was homogenized in 50 mmol/L N-2-Hydroxyethylpiperazine-N-2-Ethanesulfonic Acid (HEPES), 250 mmol/L sucrose buffer, pH 7.4, containing 150 mmol/L Potassium Chloride (KCl) and 500 μmol/L EDTA using a kinematica polytron PT3000 (Brinkmann Instruments, Westbury, N.Y.) homogenizer. Microsomal vesicles were isolated by removal of the nuclear fraction at 8,000×g for 10 min at 4° C. and removal of the mitochondrial fraction at 18,000×g for 10 min at 4° C. using a Beckman L8-55 ultracentrifuge and a 50Ti-13 rotor. The microsomal fraction was sedimented at 105,000×g for 60 min at 4° C. The pellet was washed once in 50 mmol/L HEPES and 150 mmol/L KCl, pH7.4, and collected again at 105,000×g for 30 min. The resulting microsomal pellet was resuspended in HEPES/KCl, pH7.4, by careful sonication in ice and stored in portions (10 mg protein/ml) at −80° C. until use.
The microsomal preparations were incubated in the presence of the pro-oxidant system NADPH/ADP/Fe^3+, consisting of 0.20 mmol/L NADPH, 50 mmol/L ADP, and 0.25 mmol/L FeCl3 in HEPES/KCl buffer (150 mmol/L KCl, 50 mmol/L HEPES) with and without the putative antioxidant substances. Oxidation of 1-ml aliquots containing 1 mg of protein was started at 37° C. by the addition of NADPH and was stopped with EDTA (10 mmol/L) after the times indicated in the figure legends. Control incubations without the pro-oxidant system were performed at 37° C. in the presence of EDTA. All Antioxidants were dissolved in water or ethanol and added to the incubations at equivalent 100 μmol concentrations.
Microsomal preparations (500 μl) were mixed with 1 ml of thiobarbituric acid (0.67 g/100 ml, 0.05 mol/L Sodium Hydroxide-NaOH). After the addition of trichloroacetic acid (50% w/v), the samples were heated to 90° C. for 30 min. After cooling and extraction of the samples with 1 ml of butanol, the absorbance of the butanol phase was determined spectrophotometrically at 532 nm. For quantification, an external standard curve was prepared using 1,1,3,3-tetraethoxypropane, which yields MDA.
A short description of test [4]: Radical scavenging capacity measured by photochemilluminescence (Photochem system). The class given is biochemical. As to conditions: for Photochemilluminescence score: 10 nmol/L=20, 100 nmol/L=15, 1000 nmol/L=10, >1000 nmol/L=5; for Effective Concentration (to eliminate radical formation): lowest effective concentration, base 10 serial dilution. An excerpt:
Test 2: Radical Scavenging Capacity Measured by Photochemilluminescence
This test assessed the general antioxidative capacity of substances in their ability to scavenge free radicals via the measurement of radicals generated (or lack thereof) through their reaction with luminol and subsequent light emission.
The individual antioxidant capacity of the putative antioxidant substances was estimated by the Photochem® system (Analytik Jena AG, Jena, Germany, and Analytik Jena USA, Inc., Texas). The system combines the generation of radicals through photochemical excitation with highly sensitive luminometric detection via the radical reaction with luminol to produce measurable light emission. Samples are diluted with pre-made buffers (standardized kits) and applied to the device. The relative antioxidative capacity is determined by comparison to a standardized blank (without antioxidants) and a standard provided with the kit. The ACL-kit (Integral Antioxidative Capacity of lipid-soluble substances) and the ACW-kit ((Integral Antioxidative Capacity of water-soluble substances) were used.
Antioxidant concentrations effective to eliminate radical formulation were established for each antioxidant.

The nature of test [5]: Global relative antioxidant activity: total oxidative stress protective capacity score (sum of five tests). The note with it: sum of five equally weighted tests, maximum 100. An excerpt:
Each oxidant was scored in each test, the results were then totaled for each antioxidant for each of the tests on an equal weighted basis. The total score of a particular antioxidant is reflective of the overall oxidative stress protective capacity of the antioxidant.
The five tests, which were equally weighted at 20 points each, allowed for the maximum highest possible score of 100 points. Using this scale, the higher score indicates higher oxidative stress protective capacity of the antioxidant. Equal weight was given to an antioxidant's performance in each study because each study tested the antioxidant's ability to protect against a unique different set of oxidative stress parameters.
A total oxidative stress protective capacity score for each antioxidant was determined by adding the results of the five tests for each antioxidant. Each of the five tests was assigned equal weight. That is, each antioxidant could receive a maximum of 20 points in each test so that each test contributed equally to the total score for each antioxidant.

A value given as a limit tells only on which side of the number the result lay.

For the compound `Cc1c(C)c2c(c(C)c1O)CCC(C)(CCCC(C)CCCC(C)CCCC(C)C)O2` (racemic) [Tocopherol, dl-alpha tocopherol], in test [1], the “Positive cells after UVB radiation (anti-thymine dimer antibody positive cells)” value (“Positive cells after UVB radiation” below) was 35%, the “Inhibition of photoproduct generation (protective effect)” value (from here on “Inhibition of photoproduct generation”) came to 34% and the “UVB Irradiated Keratinocytes score” value amounted to 17 points. Also, the “Primary Oxidative Products score” value in test [2] was 10 points. For the same compound, in the test on human skin, the “reduction in SBCs” value was 31% and the “Sun Burn Cell Assay score” value was determined as 16 points. In addition, the “relative activity (efficacy) to the standard idebenone in sun burn cell assay” value in the test with human skin (percentage reduction divided by that of idebenone) was 82%. Besides, the “Secondary Oxidative Products score” value in test [3] stood at 17 points. In test [4], the Photochemilluminescence score is on record as 20 points and the “Effective Concentration (to eliminate radical formation)” value (shortened to “Effective Concentration”) turned out to be 10 nmol/L. Further, in test [5], the “Total Points (Total Score)” value is listed as 80 points.

Regarding `O=C(O)CCCCC1CCSS1` (racemic) [lipoic acid, dl-alpha lipoic acid], in test [1], the “Positive cells after UVB radiation” value was found to be 53%, the “Inhibition of photoproduct generation” value was 0% and the “UVB Irradiated Keratinocytes score” value was 7 points. In addition, the “Primary Oxidative Products score” value in test [2] came out at 4 points. Moreover, the “Sun Burn Cell Assay score” value with human skin was determined as 5 points. Besides, the “Secondary Oxidative Products score” value in test [3] is listed as 20 points. Besides, in test [4], the Photochemilluminescence score is on record as 5 points and the “Effective Concentration” value is reported as >1000 (not detectable) nmol/L. Moreover, in test [5], the “Total Points (Total Score)” value worked out at 41 points.

Take `O=C1O[C@H]([C@@H](O)CO)C(O)=C1O` [Ascorbic acid, 1-ascorbic acid]: in test [1], the “Positive cells after UVB radiation” value is 34%, the “Inhibition of photoproduct generation” value is listed as 36% and the “UVB Irradiated Keratinocytes score” value was determined as 17 points. Besides, the “Sun Burn Cell Assay score” value with human skin was 0 points.

Turning to `COC1=C(OC)C(=O)C(CCCCCCCCCCO)=C(C)C1=O` [Idebenone, 6-(10-hydroxydecyl)-2,3-dimethoxy-5-methyl-1,4-benzoquinone], in test [1], the “Positive cells after UVB radiation” value was found to be 29%, the “Inhibition of photoproduct generation” value was 45% and the “UVB Irradiated Keratinocytes score” value came to 20 points. Also, the “Primary Oxidative Products score” value in test [2] amounted to 16 points. Also, in the test with human skin, the “reduction in SBCs” value is given as 38% and the “Sun Burn Cell Assay score” value came out at 20 points. Besides, the “Secondary Oxidative Products score” value in test [3] stood at 19 points. In test [4], the Photochemilluminescence score is 20 points and the “Effective Concentration” value was found to be 10 nmol/L. For the same compound, in test [5], the “Total Points (Total Score)” value came to 95 points.

With `c1coc(CNc2ncnc3[nH]cnc23)c1` [Kinetin, kinetin], in test [1], the “Positive cells after UVB radiation” value worked out at 34%, the “Inhibition of photoproduct generation” value amounted to 36% and the “UVB Irradiated Keratinocytes score” value came to 17 points. Besides, the “Sun Burn Cell Assay score” value in the test with human skin is 11 points.

As to `COC1=C(OC)C(=O)C(C/C=C(\C)CC/C=C(\C)CC/C=C(\C)CC/C=C(\C)CC/C=C(\C)CC/C=C(\C)CC/C=C(\C)CC/C=C(\C)CC/C=C(\C)CCC=C(C)C)=C(C)C1=O` [Ubiquinone, ubiquinone], in test [1], the “Positive cells after UVB radiation” value came to 51%, the “Inhibition of photoproduct generation” value is 4% and the “UVB Irradiated Keratinocytes score” value was found to be 17 points. The “Primary Oxidative Products score” value in test [2] is given as 5 points. For the same compound, the “Sun Burn Cell Assay score” value with human skin is 6 points. Besides, the “Secondary Oxidative Products score” value in test [3] amounted to 12 points. In test [4], the Photochemilluminescence score came out at 15 points and the “Effective Concentration” value was 100 nmol/L. Moreover, in test [5], the “Total Points (Total Score)” value is listed as 55 points.

The record behind these values is patent US8802054B2, “Method for characterizing the oxidative stress protective capacity of an antioxidative substance” (PCR Technology Holdings, LC, priority 2005, dated 2014).
